{"source": "patent US4734420A", "about": "“Anti-hypertensive agents” (priority 1980, dated 1988)", "key": {"ACE [1]": {"system": "ACE", "settings": "oral, most patients; cited from earlier work"}, "Human urinary ACE": {"biological_target": "Human urinary ACE (Homo sapiens, UniProt P12821)", "sequence (P12821 30-1232 limits assumed)": "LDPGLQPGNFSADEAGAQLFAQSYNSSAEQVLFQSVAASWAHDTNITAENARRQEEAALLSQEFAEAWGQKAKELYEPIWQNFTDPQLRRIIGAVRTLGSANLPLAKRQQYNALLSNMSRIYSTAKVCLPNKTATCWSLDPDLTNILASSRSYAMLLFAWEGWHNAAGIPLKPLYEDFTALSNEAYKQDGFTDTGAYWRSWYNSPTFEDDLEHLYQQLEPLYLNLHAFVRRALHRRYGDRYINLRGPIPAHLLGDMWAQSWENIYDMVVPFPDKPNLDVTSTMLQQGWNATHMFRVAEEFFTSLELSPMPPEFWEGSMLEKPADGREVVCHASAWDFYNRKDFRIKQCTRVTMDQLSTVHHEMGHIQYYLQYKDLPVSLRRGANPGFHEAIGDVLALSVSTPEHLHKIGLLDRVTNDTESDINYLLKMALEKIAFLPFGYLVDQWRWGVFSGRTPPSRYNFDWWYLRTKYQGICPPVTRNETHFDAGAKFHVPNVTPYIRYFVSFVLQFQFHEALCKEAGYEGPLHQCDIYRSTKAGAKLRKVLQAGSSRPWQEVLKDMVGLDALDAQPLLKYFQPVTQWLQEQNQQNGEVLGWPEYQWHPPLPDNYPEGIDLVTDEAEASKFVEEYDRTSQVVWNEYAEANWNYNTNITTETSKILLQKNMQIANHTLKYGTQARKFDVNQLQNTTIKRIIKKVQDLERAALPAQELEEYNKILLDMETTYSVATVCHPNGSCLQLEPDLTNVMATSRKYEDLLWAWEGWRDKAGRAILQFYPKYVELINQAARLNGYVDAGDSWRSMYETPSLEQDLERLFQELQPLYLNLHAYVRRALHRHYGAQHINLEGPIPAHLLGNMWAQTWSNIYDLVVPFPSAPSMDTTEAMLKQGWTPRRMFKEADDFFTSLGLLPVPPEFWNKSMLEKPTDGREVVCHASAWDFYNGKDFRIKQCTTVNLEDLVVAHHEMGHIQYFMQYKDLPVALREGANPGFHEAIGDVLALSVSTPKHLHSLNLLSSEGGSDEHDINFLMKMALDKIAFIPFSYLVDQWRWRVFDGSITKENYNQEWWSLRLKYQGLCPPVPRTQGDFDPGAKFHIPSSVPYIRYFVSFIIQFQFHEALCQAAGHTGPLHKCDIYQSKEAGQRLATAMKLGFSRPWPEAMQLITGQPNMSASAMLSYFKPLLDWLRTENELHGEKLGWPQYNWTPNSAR", "assay": "biochemical", "settings": "read-out: I50 value", "excerpt": "The role of ACE in the pathogenesis of hypertension has prompted a search for inhibitors of the enzyme that could act as antihypertensive drugs. See for example U.S. Pat. Nos. 3,891,616, 3,947,575, 4,052,511 and 4,053,651. […]. No. 4,046,889 to Ondetti et al., issued Sept. 6, 1977, and in scientific articles by Cushman, D. W. et al., Biochemistry 16, 5484 (1977), and by Ondetti, M. et al., Science 196, 441 (1977). […]. These factors include the source of enzyme, its purity, the substrate used and its concentration, and the composition of the assay buffer. All I50 data reported herein have been performed with the same assay system and same enzyme (human urinary ACE) and with an approximately 1/2 Km level of substrate and are therefore internally consistent. Discrepancies with data obtained by other workers may be observed. Indeed such discrepancies do exist in the literature, for unknown reasons. See, for example, the I50 values for BPP9a reported by Cushman, D. W., et al., Experientia 29, 1032 (1973) and by Dorer, F. E., et al., Biochim. Biophys. Acta 429, 220 (1976).\nThe inhibitory potency of N^α -[3-(L-α-glutamylthio)-2-D-methyl-propanoyl]-L-proline in vitro was measured in the following assay. […] The enzyme was assayed in 0.05M Hepes buffer, pH 8.0 containing 0.1M NaCl and 0.75M Na2 SO4. […]"}, "ACE [2]": {"system": "ACE", "settings": "statement of belief; cited from earlier work"}}, "data": [{"smiles": "C[C@H](CS)C(=O)N1CCCC1C(=O)O", "note": "(stereo in doubt) [SQ14225, D-3-mercapto-2-methylpropanoyl-L-proline]", "values": [{"measurement": "stability in normal gastric and intestinal environments", "setting": "ACE [1]", "result": "sufficiently stable in the normal gastric and intestinal environments of most patients"}]}, {"smiles": "C[C@H](CSC(=O)[C@@H](N)CCC(=O)O)C(=O)N1CCC[C@H]1C(=O)O", "note": "[N^α -[3-(L-α-glutamylthio)-2-D-methyl-propanoyl]-L-proline]", "values": [{"measurement": "IC50", "setting": "Human urinary ACE", "result": 2.1, "unit": "nM"}]}, {"smiles": "C[C@H](CSSC[C@@H](C)C(=O)N1CCC[C@H]1C(=O)O)C(=O)N1CCC[C@H]1C(=O)O", "note": "[disulfide]", "values": [{"measurement": "inhibitory activity of disulfide (dimer of SQ14225)", "setting": "ACE [2]", "result": "largely inactive as an inhibitor"}]}]}
